The source of these data is patent US20100286136A1, “DIHYDRONAPHTHYRIDINYL AND RELATED COMPOUNDS FOR USE IN TREATING OPHTHALMOLOGICAL DISORDERS” (priority 2009, published 2010).

The test deals with T1, CCR2b (Homo sapiens, UniProt P41597).
T1 construct: host or cells: AequoScreen CCR2b cells
T1 sequence (P41597 1-360 isoform P41597-2): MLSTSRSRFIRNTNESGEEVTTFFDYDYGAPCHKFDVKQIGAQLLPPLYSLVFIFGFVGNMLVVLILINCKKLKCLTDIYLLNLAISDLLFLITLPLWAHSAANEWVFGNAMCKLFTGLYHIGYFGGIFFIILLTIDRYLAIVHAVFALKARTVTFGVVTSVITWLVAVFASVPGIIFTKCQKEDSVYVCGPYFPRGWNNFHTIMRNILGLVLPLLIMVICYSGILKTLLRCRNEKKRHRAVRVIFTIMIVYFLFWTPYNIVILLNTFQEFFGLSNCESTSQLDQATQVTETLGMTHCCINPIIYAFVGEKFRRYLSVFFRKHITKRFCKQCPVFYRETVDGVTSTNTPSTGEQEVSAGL
Put plainly: AequoScreen CCR2b calcium flux assay, antagonist mode against reference agonist MCP-1. The test is classed as cell-based. Conditions: AequoScreen CCR2b (FAST-060A) cells; inhibition of reference agonist MCP-1 at its EC80; read-out: IC50 (μM) Ca^++flux. As to the method: The biological activity of the compounds described herein can be evaluated using assays known in the art, such as the AequoScreen™ assay.
AequoScreen™ CCR2b (FAST-060A) cells grown to mid-log phase in culture media without antibiotics are detached with PBS-EDTA, centrifuged and resuspended in assay buffer (DMEM/HAM's F12 with HEPES, without phenol red+0.1% BSA protease free) at a concentration of 1×10^6 cells/mL. Cells are incubated at room temperature for at least 4 hours with coelenterazine h. Dose response curves are performed before testing. The reference agonist is MCP-1.
For agonist testing, 50 μL of cell suspension is mixed with 50 μL of test compound in a 96-well plate. The resulting emission of light is recorded using a Hamamatsu Functional Drug Screening System 6000 (FDSS 6000).
Following an incubation of 15 minutes after the first injection, 100 μL of the resulting cell suspension containing the test compound is mixed with 100 μL of the reference agonist in the 96 well test plate. The resulting emission of light is recorded using the same luminometer as for agonist testing.
Agonist activity of a test compound can be expressed as a percentage of the activity of the reference agonist at its EC100 concentration. Antagonist activity of a test compound can be expressed as a percentage of the inhibition of reference agonist activity at its EC80 concentration.
Background: Calcium flux is commonly read through the fluorescence of an indicator in the cells.

Take “3-Ethyl-6-((3-(methoxymethyl)-3-(3-(trifluoromethyl)-5,6,7,8-tetrahydro-1,6-naphthyridine-6-carbonyl)pyrrolidin-1-yl)methyl)benzo[d]oxazol-2(3H)-one [Example 42]”: the IC50 was less than 0.2 µM.
Under “5-Bromo-6-((3-(methoxymethyl)-3-(3-(trifluoromethyl)-5,6,7,8-tetrahydro-1,6-naphthyridine-6-carbonyl)pyrrolidin-1-yl)methyl)-3-methylbenzo[d]oxazol-2(3H)-one [Example 43]” stands less than 0.2 µM.
For the compound `Cn1c(=O)ccc2ccc(CN3CCC(CC4CC4)(C(=O)N4CCc5ncc(C(F)(F)F)cc5C4)C3)cc21` (single isomer, unassigned) [Example 4, 5 (Enantiomer I)], the IC50 was less than 0.2 µM.
Next, `Cn1c(=O)ccc2ccc(CN3CCC(CC4CC4)(C(=O)N4CCc5ncc(C(F)(F)F)cc5C4)C3)cc21` (single isomer, unassigned) [Example 4, 5 (Enantiomer II)]: less than 0.2 µM; `COCC1(C(=O)N2CCc3ncc(C(F)(F)F)cc3C2)CCN(Cc2ccc3ccc(=O)n(C)c3c2)C1` (single isomer, unassigned) [Example 26, 27 (Enantiomer I)]: less than 0.2 µM.
Next, `COCC1(C(=O)N2CCc3ncc(C(F)(F)F)cc3C2)CCN(Cc2ccc3ccc(=O)n(C)c3c2)C1` (single isomer, unassigned) [Example 26, 27 (Enantiomer II)]: more than 1 µM; `COCC1(C(=O)N2CCc3ncc(C(F)(F)F)cc3C2)CCN(C2CCC(O)(c3ccc(OC)nc3)CC2)C1` (single isomer, unassigned) [Example 30, 31 (Isomer I), (1-(4-Hydroxy-4-(6-methoxypyridin-3-yl)cyclohexyl)-3-(methoxymethyl)pyrrolidin-3-yl)(3-(trifluoromethyl)-7,8-dihydro-1,6-naphthyridin-6(5H)-yl)methanone]: less than 0.2 µM.
Under `COCC1(C(=O)N2CCc3ncc(C(F)(F)F)cc3C2)CCN(C2CCC(O)(c3ccc(OC)nc3)CC2)C1` (single isomer, unassigned) [Example 30, 31 (Isomer II), (1-(4-Hydroxy-4-(6-methoxypyridin-3-yl)cyclohexyl)-3-(methoxymethyl)pyrrolidin-3-yl)(3-(trifluoromethyl)-7,8-dihydro-1,6-naphthyridin-6(5H)-yl)methanone] stands more than 1 µM; under `COCC1(C(=O)N2CCc3ncc(C(F)(F)F)cc3C2)CCN(Cc2ccc3oc(=O)n(C)c3c2)C1` (single isomer, unassigned) [Example 40, 41 (Enantiomer I)], less than 0.2 µM.
In the case of `COCC1(C(=O)N2CCc3ncc(C(F)(F)F)cc3C2)CCN(Cc2ccc3oc(=O)n(C)c3c2)C1` (single isomer, unassigned) [Example 40, 41 (Enantiomer II)], the IC50 fell in the range of 0.2 to 1 µM.
Regarding `COCC1(C(=O)N2CCc3ncc(C(F)(F)F)cc3C2)CCN(C2CCC(c3ccc(OC)nc3)CC2)C1` (single isomer, unassigned) [Example 50, 51 (Isomer I), (3-(Methoxymethyl)-1-(4-(6-methoxypyridin-3-yl)cyclohexyl)pyrrolidin-3-yl)(3-(trifluoromethyl)-7,8-dihydro-1,6-naphthyridin-6(5H)-yl)methanone], the 50% inhibitory concentration (IC50) was less than 0.2 µM.
Next, `COCC1(C(=O)N2CCc3ncc(C(F)(F)F)cc3C2)CCN(C2CCC(c3ccc(OC)nc3)CC2)C1` (single isomer, unassigned) [Example 50, 51 (Isomer II), (3-(Methoxymethyl)-1-(4-(6-methoxypyridin-3-yl)cyclohexyl)pyrrolidin-3-yl)(3-(trifluoromethyl)-7,8-dihydro-1,6-naphthyridin-6(5H)-yl)methanone]: less than 0.2 µM.
Regarding `COCC1(C(=O)N2CCc3ncc(C(F)(F)F)cc3C2)CCN(C2CCC(c3cncnc3)CC2)C1` (single isomer, unassigned) [Example 54, 55 (Isomer II), (3-(Methoxymethyl)-1-(4-(pyrimidin-5-yl)cyclohexyl)pyrrolidin-3-yl)(3-(trifluoromethyl)-7,8-dihydro-1,6-naphthyridin-6(5H)-yl)methanone], the IC50 is 0.2 to 1 µM.
Next, `COCC1(C(=O)N2CCc3ncc(C(F)(F)F)cc3C2)CCN(C2CCC(c3ccc(F)cc3)CC2)C1` (single isomer, unassigned) [Example 56, 57 (Isomer I), (1-(4-(4-Fluorophenyl)cyclohexyl)-3-(methoxymethyl)pyrrolidin-3-yl)(3-(trifluoromethyl)-7,8-dihydro-1,6-naphthyridin-6(5H)-yl)methanone]: less than 0.2 µM.
Under `CC(C)CC1(C(=O)N2CCc3ncc(C(F)(F)F)cc3C2)CCN(Cc2ccc3ccc(=O)n(C)c3c2)CC1` [Example 1, 7-((4-Isobutyl-4-(3-(trifluoromethyl)-5,6,7,8-tetrahydro-1,6-naphthyridine-6-carbonyl)piperidin-1-yl)methyl)-1-methylquinolin-2(1H)-one] stands 0.2 to 1 µM; under `COc1cc(CN2CCC(CC(C)C)(C(=O)N3CCc4ncc(C(F)(F)F)cc4C3)CC2)ccc1O` [Example 2, (1-(4-Hydroxy-3-methoxybenzyl)-4-isobutylpiperidin-4-yl)(3-(trifluoromethyl)-7,8-dihydro-1,6-naphthyridin-6(5H)-yl)methanone], more than 1 µM; under `Cn1c(=O)ccc2ccc(CN3CCC(CC4CC4)(C(=O)N4CCc5ncc(C(F)(F)F)cc5C4)C3)cc21` (stereo not shown) [Example 3, 7-((3-(Cyclopropylmethyl)-3-(3-(trifluoromethyl)-5,6,7,8-tetrahydro-1,6-naphthyridine-6-carbonyl)pyrrolidin-1-yl)methyl)-1-methylquinolin-2(1H)-one], less than 0.2 µM.
Under `COc1cc(CN2CCC(CC3CC3)(C(=O)N3CCc4ncc(C(F)(F)F)cc4C3)C2)ccc1O` (stereo not shown) [Example 6, (1-(4-Hydroxy-3-methoxybenzyl)-3-(cyclopropylmethyl)pyrrolidin-3-yl)(3-(trifluoromethyl)-7,8-dihydro-1,6-naphthyridin-6(5H)-yl)methanone] stands 0.2 to 1 µM; under `O=C(N1CCc2ncc(C(F)(F)F)cc2C1)C1(CC2CC2)CCN(Cc2ccc(O)c(F)c2)C1` (stereo not shown) [Example 7, (3-(Cyclopropylmethyl)-1-(3-fluoro-4-hydroxybenzyl)pyrrolidin-3-yl)(3-(trifluoromethyl)-7,8-dihydro-1,6-naphthyridin-6(5H)-yl)methanone], more than 1 µM.
As for `O=C(N1CCc2ncc(C(F)(F)F)cc2C1)C1(CC2CC2)CCN(CC2CCOCC2)C1` (stereo not shown) [Example 8, (3-(Cyclopropylmethyl)-1-((tetrahydro-2H-pyran-4-yl)methyl)pyrrolidin-3-yl)(3-(trifluoromethyl)-7,8-dihydro-1,6-naphthyridin-6(5H)-yl)methanone], the concentration for half-maximal inhibition (IC50) was in the range of 0.2 to 1 µM.
As for `CC1(C)CC(CN2CCC(CC3CC3)(C(=O)N3CCc4ncc(C(F)(F)F)cc4C3)C2)CCO1` (stereo not shown) [Example 9, (3-(Cyclopropylmethyl)-1-((2,2-dimethyltetrahydro-2H-pyran-4-yl)methyl)pyrrolidin-3-yl)(3-(trifluoromethyl)-7,8-dihydro-1,6-naphthyridin-6(5H)-yl)methanone], the IC50 was 0.2 to 1 µM.
Under `COc1cc2c(cc1CN1CCC(CC3CC3)(C(=O)N3CCc4ncc(C(F)(F)F)cc4C3)C1)OC(C)C2` (stereo not shown) [Example 10, (3-(Cyclopropylmethyl)-1-((5-methoxy-2-methyl-2,3-dihydrobenzofuran-6-yl)methyl)pyrrolidin-3-yl)(3-(trifluoromethyl)-7,8-dihydro-1,6-naphthyridin-6(5H)-yl)methanone] stands more than 1 µM; under `Cn1c(=O)sc2ccc(CN3CCC(CC4CC4)(C(=O)N4CCc5ncc(C(F)(F)F)cc5C4)C3)cc21` (stereo not shown) [Example 11, 5-((3-(Cyclopropylmethyl)-3-(3-(trifluoromethyl)-5,6,7,8-tetrahydro-1,6-naphthyridine-6-carbonyl)pyrrolidin-1-yl)methyl)-3-methylbenzo[d]thiazol-2(3H)-one], less than 0.2 µM; under `O=C(N1CCc2ncc(C(F)(F)F)cc2C1)C1(CC2CC2)CCN(Cc2ccc3sc(=O)[nH]c3c2)C1` (stereo not shown) [Example 12, 5-((3-(Cyclopropylmethyl)-3-(3-(trifluoromethyl)-5,6,7,8-tetrahydro-1,6-naphthyridine-6-carbonyl)pyrrolidin-1-yl)methyl)benzo[d]thiazol-2(3H)-one], 0.2 to 1 µM.
Under `O=C(N1CCc2ncc(C(F)(F)F)cc2C1)C1(CC2CC2)CCN(Cc2ccc3ccc(=O)[nH]c3c2)C1` (stereo not shown) [Example 15, 7-((3-(Cyclopropylmethyl)-3-(3-(trifluoromethyl)-5,6,7,8-tetrahydro-1,6-naphthyridin-6-carbonyl)pyrrolidin-1-yl)methyl)quinolin-2(1H)-one] stands more than 1 µM.

The term IC50 denotes the concentration that gives 50% inhibition.
